ChEMBL document CHEMBL4265901, “Eupatilin inhibits angiogenesis-mediated human hepatocellular metastasis by reducing MMP-2 and VEGF signaling” (Bioorg Med Chem Lett, 2018)
Activity calls are given as the source filed them. The rule behind the calls is not given here.

Tests used:
[1] = target: RAC-alpha serine/threonine-protein kinase (Homo sapiens) (UniProt P31749); assay: Inhibition of Akt phosphorylation in HUVEC at 6.25 uM after 24 hrs by Western blot analysis relative to control; assay type: cell-based
[2] = test system: HUVEC; assay: Downregulation of VEGF protein level in HUVEC at 3.125 uM after 24 hrs by Western blot analysis relative to control; assay type: functional, Homo sapiens
[3] = test system: HUVEC; assay: Antiangiogenic activity in HUVEC assessed as inhibition of tube formation at 3.125 uM after 24 hrs by light microscopic analysis relative to control; assay type: functional; settings: Homo sapiens
[4] = test system: SNU-182; assay: Downregulation of MMP9 mRNA levels in human SNU182 cells at 20 uM after 24 hrs by quantitative real-time qPCR analysis; assay type: functional, cell-based
[5] = test system: HUVEC; assay: Downregulation of HIF-1 alpha protein level in HUVEC at 3.125 uM after 24 hrs by Western blot analysis relative to control; assay type: functional, Homo sapiens
[6] = test system: HUVEC; assay: Cytotoxicity activity against HUVEC assessed as decrease in cell viability up to 6.25 uM after 24 hrs by MTT assay; assay type: cell-based; settings: human
[7] = test system: HUVEC; assay: Antiangiogenic activity in HUVEC assessed as inhibition of tube formation at 6.25 uM after 24 hrs by light microscopic analysis relative to control; assay type: functional; settings: Homo sapiens
[8] = test system: HepG2; assay: Antiproliferative activity against human HepG2 cells at 200 uM after 24 hrs by MTT assay; assay type: functional
[9] = test system: HUVEC; assay: Downregulation of VEGF level in HUVEC at 6.25 uM after 24 hrs by Western blot analysis relative to control; assay type: functional, Homo sapiens
[10] = test system: SNU-182; assay: Downregulation of MMP2 mRNA levels in human SNU182 cells at 20 uM after 24 hrs by quantitative real-time qPCR analysis; assay type: functional, cell-based
[11] = test system: HUVEC; assay: Downregulation of HIF-1 alpha protein level in HUVEC at 6.25 uM after 24 hrs by Western blot analysis relative to control; assay type: functional, Homo sapiens
[12] = test system: HepG2; assay: Antiproliferative activity against human HepG2 cells after 24 hrs by MTT assay; assay type: functional, cell-based
[13] = test system: SNU-182; assay: Cytotoxicity against human SNU182 cells assessed as decrease in cell viability up to 20 uM after 48 hrs by MTT assay; assay type: cell-based; settings: snu-182, 48 h
[14] = test system: HUVEC; assay: Cytotoxicity activity against HUVEC assessed as decrease in cell viability at 12.5 to 100 uM after 24 hrs by MTT assay; assay type: cell-based; settings: human
[15] = target: RAC-alpha serine/threonine-protein kinase (Homo sapiens) (UniProt P31749); assay: Inhibition of Akt phosphorylation in HUVEC at 3.125 uM after 24 hrs by Western blot analysis relative to control; assay type: cell-based
[16] = test system: HUVEC; assay: Antiangiogenic activity in HUVEC assessed as inhibition of tube formation at 1.6 uM after 24 hrs by light microscopic analysis relative to control; assay type: functional; settings: Homo sapiens

RAC-alpha serine/threonine-protein kinase (Homo sapiens), sequence (P31749 whole entry): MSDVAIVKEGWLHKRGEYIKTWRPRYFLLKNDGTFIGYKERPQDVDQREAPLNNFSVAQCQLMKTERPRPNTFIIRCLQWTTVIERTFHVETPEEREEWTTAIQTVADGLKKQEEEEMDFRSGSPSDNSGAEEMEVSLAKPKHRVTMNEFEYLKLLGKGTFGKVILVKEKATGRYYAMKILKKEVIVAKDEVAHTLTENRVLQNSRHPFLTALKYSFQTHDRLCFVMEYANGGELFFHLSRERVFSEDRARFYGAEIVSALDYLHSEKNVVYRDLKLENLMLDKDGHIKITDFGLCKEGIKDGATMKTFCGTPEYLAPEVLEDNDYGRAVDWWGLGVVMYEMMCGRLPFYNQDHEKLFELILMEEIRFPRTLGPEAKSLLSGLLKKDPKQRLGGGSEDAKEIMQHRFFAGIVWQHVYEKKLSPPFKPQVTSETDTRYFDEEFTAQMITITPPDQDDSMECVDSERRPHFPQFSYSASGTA

Row | SMILES | fold change (FC) [1] | fold change (FC) [2] | inhibition at 3.125 µM [3] [%] | Activity [4] | fold change (FC) [5] | Activity [6] | inhibition at 6.25 µM [7] [%] | Activity [8] [%] | Activity [9] [%] | Activity [10] | fold change (FC) [11] | Activity [12] | Activity [13] | Activity [14] | fold change (FC) [15] | inhibition at 1.6 µM [16] [%]
1 | COc1ccc(-c2cc(=O)c3c(O)c(OC)c(O)cc3o2)cc1OC [EUPATILIN] | 0.8 | 0.88 | 14.1 | inactive | 0.83 | Non-Toxic | 24.8 | 43.24 | 31 | Active | 0.84 | Dose-dependent effect | Non-Toxic | Toxic | 0.82 | –
2 | CC(C)=CC[C@@H](O)C1=CC(=O)c2c(O)ccc(O)c2C1=O [SHIKONIN] | – | – | – | – | – | – | – | – | – | – | – | – | – | – | – | 31.8
